According to publication PMC6120233, “Importance of Val567 on heme environment and substrate recognition of neuronal nitric oxide synthase” (FEBS Open Bio, 2018):

Tests used:
[1] = biological target: T1, WT nNOSoxy (oxygenase domain of rat neuronal nitric oxide synthase) (Rattus norvegicus, UniProt P29476, V567T); experiment: biochemical; parameters: UV-visible perturbation difference spectroscopy; displacement of heme-bound imidazole (0.5 mM), apparent dissociation constant; details: read-out: Val567Thr
T1 construct: gene Nos1; oxygenase domain, aa 1-720 plus 6-histidine tag, plasmid pCWnNOSoxy, E. coli BL21(DE3), HisTrap purification
Method: (§1) The native enzymes (~1–2 μM) were incubated 5 min at 4 °C in 50 mM HEPES buffer pH 7.4 in the presence of 0.5 mM ImH and then equally divided into reference and sample cuvettes. After 2 min at room temperature, increasing concentrations of the studied compounds were added to the sample cuvette and equivalent amounts of buffer were added to the reference cuvette. Apparent dissociation constants (K s,app) were estimated by plotting the difference in absorbance between peak (~395 nm) and valley (~430 nm) as a function of added substrate or substrate analogue concentrations and fitting the data to a hyperbolic one‐site binding model by Origin (OriginLab Corp., Northampton, MA, USA). […] Effective K s values can be deduced from the K s,app and the K s values for ImH, assuming simple competitive binding equilibrium 37.

[2] = biological target: T2, WT nNOSoxy (oxygenase domain of rat neuronal nitric oxide synthase) (Rattus norvegicus, UniProt P29476, V567Y); experiment: biochemical; parameters: UV-visible perturbation difference spectroscopy; displacement of heme-bound imidazole (0.5 mM), apparent dissociation constant; details: read-out: Val567Tyr
T2 construct: gene Nos1; oxygenase domain, aa 1-720 plus 6-histidine tag, plasmid pCWnNOSoxy, E. coli BL21(DE3), HisTrap purification
Method: as §1

[3] = biological target: T3, WT nNOSoxy (oxygenase domain of rat neuronal nitric oxide synthase) (Rattus norvegicus, UniProt P29476, V567S); experiment: biochemical; parameters: UV-visible perturbation difference spectroscopy; displacement of heme-bound imidazole (0.5 mM), apparent dissociation constant; details: read-out: Val567Ser
T3 construct: gene Nos1; oxygenase domain, aa 1-720 plus 6-histidine tag, plasmid pCWnNOSoxy, E. coli BL21(DE3), HisTrap purification
Method: as §1

[4] = biological target: T4, WT nNOSoxy (oxygenase domain of rat neuronal nitric oxide synthase) (Rattus norvegicus, UniProt P29476, V567R); experiment: biochemical; parameters: UV-visible perturbation difference spectroscopy; displacement of heme-bound imidazole (0.5 mM), apparent dissociation constant; details: read-out: Val567Arg
T4 construct: gene Nos1; oxygenase domain, aa 1-720 plus 6-histidine tag, plasmid pCWnNOSoxy, E. coli BL21(DE3), HisTrap purification
Method: as §1

[5] = biological target: T5, WT nNOSoxy (oxygenase domain of rat neuronal nitric oxide synthase) (Rattus norvegicus, UniProt P29476, V567F); experiment: biochemical; parameters: UV-visible perturbation difference spectroscopy; displacement of heme-bound imidazole (0.5 mM), apparent dissociation constant; details: read-out: Val567Phe
T5 construct: gene Nos1; oxygenase domain, aa 1-720 plus 6-histidine tag, plasmid pCWnNOSoxy, E. coli BL21(DE3), HisTrap purification
Method: as §1

[6] = biological target: T1, WT nNOSoxy (oxygenase domain of rat neuronal nitric oxide synthase); experiment: UV-visible difference spectroscopy, heme-Fe(III)-imidazole complex formation; assay type: binding; details: read-out: Val567Thr
[7] = biological target: T6, WT nNOSoxy (oxygenase domain of rat neuronal nitric oxide synthase) (Rattus norvegicus, UniProt P29476); experiment: as above; assay type: binding
T6 construct: gene Nos1; oxygenase domain, aa 1-720 plus 6-histidine tag, plasmid pCWnNOSoxy, E. coli BL21(DE3), HisTrap purification
Description: (§2) UV-visible difference spectroscopy, heme-Fe(III)-imidazole complex formation on WT nNOSoxy (oxygenase domain of rat neuronal nitric oxide synthase)

[8] = biological target: T5, WT nNOSoxy (oxygenase domain of rat neuronal nitric oxide synthase); experiment: as above; assay type: binding; details: read-out: Val567Phe
Description: as §2

[9] = biological target: T2, WT nNOSoxy (oxygenase domain of rat neuronal nitric oxide synthase); experiment: as above; assay type: binding; details: read-out: Val567Tyr
Description: as §2

[10] = biological target: T4, WT nNOSoxy (oxygenase domain of rat neuronal nitric oxide synthase); experiment: as above; assay type: binding; details: read-out: Val567Arg
Description: as §2

[11] = biological target: T3, WT nNOSoxy (oxygenase domain of rat neuronal nitric oxide synthase); experiment: as above; assay type: binding; details: read-out: Val567Ser
Description: as §2

T2 sequence (P29476 1-720 V567Y): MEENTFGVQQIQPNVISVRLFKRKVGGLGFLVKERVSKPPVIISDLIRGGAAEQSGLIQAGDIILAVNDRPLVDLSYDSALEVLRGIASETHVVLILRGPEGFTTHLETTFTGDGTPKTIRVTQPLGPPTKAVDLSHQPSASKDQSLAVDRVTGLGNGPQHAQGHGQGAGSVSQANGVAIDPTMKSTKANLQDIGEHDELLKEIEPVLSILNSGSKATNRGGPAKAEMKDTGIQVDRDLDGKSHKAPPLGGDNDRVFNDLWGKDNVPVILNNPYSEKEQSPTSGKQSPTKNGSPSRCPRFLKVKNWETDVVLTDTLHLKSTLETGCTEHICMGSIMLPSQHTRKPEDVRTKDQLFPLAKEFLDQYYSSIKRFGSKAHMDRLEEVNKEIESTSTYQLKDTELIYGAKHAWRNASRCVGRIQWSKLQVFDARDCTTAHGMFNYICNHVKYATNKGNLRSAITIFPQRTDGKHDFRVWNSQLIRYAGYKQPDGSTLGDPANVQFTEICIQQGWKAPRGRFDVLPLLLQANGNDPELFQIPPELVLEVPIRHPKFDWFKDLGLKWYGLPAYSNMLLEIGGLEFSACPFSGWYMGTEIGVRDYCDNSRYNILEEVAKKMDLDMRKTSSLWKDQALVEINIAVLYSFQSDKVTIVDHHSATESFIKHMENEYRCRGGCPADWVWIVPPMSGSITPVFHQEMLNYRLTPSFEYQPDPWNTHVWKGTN
T3 sequence (P29476 1-720 V567S): as the sequence (P29476 1-720 V567Y) above, with Y567S counted along it
T1 sequence (P29476 1-720 V567T): as the sequence (P29476 1-720 V567Y) above, with Y567T counted along it
T5 sequence (P29476 1-720 V567F): as the sequence (P29476 1-720 V567Y) above, with Y567F counted along it
T4 sequence (P29476 1-720 V567R): as the sequence (P29476 1-720 V567Y) above, with Y567R counted along it
T6 sequence (P29476 1-720): as the sequence (P29476 1-720 V567Y) above, with Y567V counted along it

| Kd [1] [µM] | Kd [2] [µM] | Kd [3] [µM] | Compound | also measured |
| --- | --- | --- | --- | --- |
| 267 ± 63 | 295 ± 16 | 122 ± 8 | CCCNC(=N)N [compound 5, n-Propyl-guanidine] | – |
| 23 ± 5.6 | – | 322 ± 31 | CCCCNC(=N)N [compound 6, n-Butyl-guanidine] | – |
| 20.2 ± 3.9 | 24.3 ± 1.4 | 21.6 ± 3.9 | N=C(N)NC1CC1 [compound 8, Cyclopropyl-guanidine] | Kd [4]: 237 ± 85 µM |
| 99 ± 19 | 147 ± 43 | 34.2 ± 4.2 | CC(C)NC(=N)N [compound 9, Isopropyl-guanidine] | Kd [5]: 293 ± 34 µM; Kd [4]: > 500 µM |
| – | – | 2.2 ± 0.4 | N=C(N)Nc1ccc(F)cc1 [compound 11, 4-fluorophenyl-guanidine] | Kd [5]: 165 ± 87 µM |
| 189 ± 63 | – | 7.8 ± 1.2 | COc1ccc(NC(=N)N)cc1 [compound 12, 4-methoxyphenyl-guanidine] | – |
| – | – | – | c1c[nH]cn1 [imidazole] | Kd [6]: 93 ± 24.7 µM; Kd [7]: 76.3 ± 5.4 µM; Kd [8]: 152 ± 26 µM; Kd [9]: 11.1 ± 3 µM; Kd [10]: 262 ± 77 µM; Kd [11]: 140 ± 16 µM |
